In patent US20090269362A1, “Method for Controlling Immunodominance” (priority 2005, published 2009):

What was measured:
CD4 T cells [1] = experiment: IL-2 ELISPOT of draining lymph node cells after immunization with MalE:insert protein; assay type: in vivo, mouse; conditions: mice immunized with MalE protein
lymph node cells = experiment: IL-2 ELISPOT after immunization with peptide (cross reactivity of WT and variant); assay type: in vivo, mouse; conditions: mice immunized with WT or variant peptide
[2] = system: peptide specific T cell hybridomas; experiment: T cell hybridoma assay (IL-2 production, CTLL/MTT); assay type: cell-based, mouse
sI-A^d [3] = conditions: pH 5.3, 37° C., FITC peptide from sI-A^d
sI-A^d [4] = experiment: Peptide competition with FITC-HA[126-138] for binding to soluble I-A^d; parameters: species or system mouse; conditions: 1 μM FITC-HA[126-138], 20 nM soluble I-A^d
Procedure: B. The percentage of inhibition of binding of 1 μM N-terminal FITC-HA[126-138] to sI-A^d by the unlabeled competitor peptide was plotted against the concentration of unlabeled inhibitory peptide. Data is represented as a Hill Plot (Hill, J Physiol 40, iv-vii, 1910), and is the average of 2 independent experiments
Soluble I-A^d (20 nM) and 1 μM FITC-HA[126-138] were used for competition assays, which is in the titratable range of peptide and class II molecules. Unlabeled competitor peptides at a final concentrations ranging between 0-500 μM were mixed, and after 16-20 h of incubation at 37° C., the sI-A^d-FITC-HA[126-138] complex was separated from free peptide and quantified as described above. Inhibition by competitor peptides was calculated using the Hill equation ((Hill, J Physiol 40, iv-vii, 1910), with the IC50 value the concentration of unlabeled competitor peptide required to achieve 50% inhibition of the labeled peptide binding to class II molecules.

CD4 T cells [5] = experiment: IL-2 ELISPOT after immunization with OVA protein; assay type: in vivo, mouse; conditions: mice immunized with OVA protein
Procedure: Groups of 2 BALB/c mice were immunized in the footpad with (A) 200 μg/mL OVA protein, (B) 200 μg/mL of the indicated MalE protein, or (D and E) 5 nmol of the indicated peptide emulsified in 50 μL PBS:CFA. The number of IL-2 producing cells at day 10 was determined by 16 h in vitro stimulation of CD4 purified cells with syngeneic spleen cells and (A) 200 μg/mL protein or 12.5 μM peptide, (B) 200 μg/mL protein or 5 μM peptide, or (D and E) the indicated amount of peptide and quantified using IL-2 ELISPOT assays with background subtracted. (A and D) Data represents the mean counts of two separate cell dilutions ([…] and 1.25×10^5) of triplicate wells normalized as indicated. […] Data are representative of at least 2 independent experiments.
To provide another example of a cryptic epitope that can gain immunodominance by simply changing its kinetic stability with I-A^d, one of the peptide registers contained within the prototypic I-A^d-restricted peptide OVA [323-339] (Jenkins et al., Annu Rev Immunol 19, 23-45, 2001; Sette et al., J Immunol 142, 35-40, 1988) was studied. Several studies (McFarland et al., Biochemistry 38, 16663-16670, 1999; Robertson et al., J Immunol 164, 4706-4712, 2000) have shown that this long peptide contains several alternative registers, including the most amino terminal segment that was co-crystallized with I-A^d (Scott et al., Immunity 1, 73-83, 1998). […]

Sequence of sI-A^d (P04228 24-111 limits assumed): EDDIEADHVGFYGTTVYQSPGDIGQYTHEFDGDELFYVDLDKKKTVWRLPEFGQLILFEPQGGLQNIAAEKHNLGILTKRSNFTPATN
Sequence of sI-A^d (P01921 28-122 limits assumed, further chain): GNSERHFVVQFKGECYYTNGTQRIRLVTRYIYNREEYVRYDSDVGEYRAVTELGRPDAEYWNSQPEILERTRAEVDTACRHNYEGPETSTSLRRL

| Substance | immunogenicity of peptide within MalE (in words) (CD4 T cells [1]) | cross reactivity between WT and variant peptide after peptide immunization (in words) (lymph node cells) | stimulation of specific T cell hybridoma by soluble peptide (in words) ([2]; peptide presented by I-A^d expressing cells) | t1/2 (half-life, kinetic stability) of peptide with I-A^d (sI-A^d [3]) | competition with HA [126-138] for binding to I-A^d (in words) (sI-A^d [4]) | reactivity of specific T cell hybridoma to peptide inserted into MalE (in words) ([2]; MalE:insert protein, BALB/c spleen as APCs) | percent of T cells raised against OVA that recognize the peptide (CD4 T cells [5]) |
| --- | --- | --- | --- | --- | --- | --- | --- |
| A332I, I334V: OVA [327-339] variant with substitutions at P4 and P6 (AVHAAHIEVNEAG; UniProt P01012 327-339, looked up, variant A332I I334V) | immunodominant peptide | cross-reacted back onto the WT OVA peptide | recognized by the 3DO11.10 T cell hybridoma | greater than 80 h |  |  |  |
| AMKRHGLDNYRGYSL [HEL [11-25]] | failure in immunogenicity |  |  | 6 h | competed well | gained reactivity |  |
| HEL R14Q, G22S: HEL [11-25] variant with changes at P1 and P9 (AMKQHGLDNYRSYSL; UniProt P00698 29-43, looked up, variant R14Q G22S) | remained non-immunogenic |  |  | 11 h |  |  |  |
| HEL [20-35]: cryptic epitope of hen-egg lysozyme (YRGYSLGNWVCAAKFE; UniProt P00698 38-53, looked up, fragment) |  |  |  | 4 h | competed poorly |  |  |
| OVA [273-288]: immunodominant I-Ad restricted epitope from chicken ovalbumin (VMEERKIKVYLPRMKM; UniProt P01012 273-288, looked up, fragment) |  |  |  | 160 h |  |  |  |
| OVA [327-339]: carboxyterminal register of OVA [323-339] recognized by the 3DO11.10 T cell (AVHAAHAEINEAG; UniProt P01012 327-339, looked up, fragment) |  |  |  | 0.3 h |  |  | Less than 1% |
| R14Q, N19A, G22S: HEL [11-25] variant with changes at P1, P6, and P9 (AMKQHGLDAYRSYSL; UniProt P00698 29-43, looked up, variant R14Q N19A G22S) | significant gain in immunogenicity | a significant portion of the T cells elicited were non-reactive with the WT HEL peptide |  | 35 h |  |  |  |
